# Data: the NIST ThermoML archive (doi:10.1016/j.tca.2015.07.010)
# ± gives the expanded uncertainty stated by the source.
compound,measurement,setting,value
"O=NN1CN(N=O)CN(N=O)C1 [1,3,5-trinitroso-1,3,5-triazacyclohexane]",Triple point temperature,Crystal 1,380.15 ± 2 K
same,Triple point temperature,Crystal 2,369.25 ± 2 K
